ChEMBL document CHEMBL1153520, “A multivalent approach to the design and discovery of orally efficacious 5-HT4 receptor agonists” (J Med Chem, 2009)

Legend:
[1] = target: T1, 5-hydroxytryptamine receptor 4 (Homo sapiens, UniProt Q13639); experiment: Displacement of [H]GR-113808 from human 5HT4C receptor expressed in HEK293 cells by liquid scintillation counting; assay type: cell-based
Homo sapiens = species on record: Homo sapiens; experiment: Selectivity ratio of Ki for human 5HT3A receptor to Ki for human 5HT4C receptor
[2] = target: T1, 5-hydroxytryptamine receptor 4; experiment: Agonist activity at human 5HT4C receptor expressed in HEK293 cells assessed as accumulation of cAMP by flash plate adenylyl cyclase activation assay; assay type: functional, cell-based
[3] = target: T1, 5-hydroxytryptamine receptor 4; experiment: Intrinsic activity at human 5HT4C receptor expressed in HEK293 cells assessed as accumulation of cAMP by flash plate adenylyl cyclase activation assay relative to serotonin; assay type: functional, cell-based
hERG (KCNH2) = hERG (KCNH2) (Homo sapiens, UniProt Q12809); experiment: Inhibition of human ERG potassium channel expressed in CHO-K1 cells at 3 uM by whole cell voltage clamp assay; assay type: cell-based; settings: CHO-K1 cells expressing human ERG potassium channel
Chain of hERG (KCNH2) (Q12809 whole entry): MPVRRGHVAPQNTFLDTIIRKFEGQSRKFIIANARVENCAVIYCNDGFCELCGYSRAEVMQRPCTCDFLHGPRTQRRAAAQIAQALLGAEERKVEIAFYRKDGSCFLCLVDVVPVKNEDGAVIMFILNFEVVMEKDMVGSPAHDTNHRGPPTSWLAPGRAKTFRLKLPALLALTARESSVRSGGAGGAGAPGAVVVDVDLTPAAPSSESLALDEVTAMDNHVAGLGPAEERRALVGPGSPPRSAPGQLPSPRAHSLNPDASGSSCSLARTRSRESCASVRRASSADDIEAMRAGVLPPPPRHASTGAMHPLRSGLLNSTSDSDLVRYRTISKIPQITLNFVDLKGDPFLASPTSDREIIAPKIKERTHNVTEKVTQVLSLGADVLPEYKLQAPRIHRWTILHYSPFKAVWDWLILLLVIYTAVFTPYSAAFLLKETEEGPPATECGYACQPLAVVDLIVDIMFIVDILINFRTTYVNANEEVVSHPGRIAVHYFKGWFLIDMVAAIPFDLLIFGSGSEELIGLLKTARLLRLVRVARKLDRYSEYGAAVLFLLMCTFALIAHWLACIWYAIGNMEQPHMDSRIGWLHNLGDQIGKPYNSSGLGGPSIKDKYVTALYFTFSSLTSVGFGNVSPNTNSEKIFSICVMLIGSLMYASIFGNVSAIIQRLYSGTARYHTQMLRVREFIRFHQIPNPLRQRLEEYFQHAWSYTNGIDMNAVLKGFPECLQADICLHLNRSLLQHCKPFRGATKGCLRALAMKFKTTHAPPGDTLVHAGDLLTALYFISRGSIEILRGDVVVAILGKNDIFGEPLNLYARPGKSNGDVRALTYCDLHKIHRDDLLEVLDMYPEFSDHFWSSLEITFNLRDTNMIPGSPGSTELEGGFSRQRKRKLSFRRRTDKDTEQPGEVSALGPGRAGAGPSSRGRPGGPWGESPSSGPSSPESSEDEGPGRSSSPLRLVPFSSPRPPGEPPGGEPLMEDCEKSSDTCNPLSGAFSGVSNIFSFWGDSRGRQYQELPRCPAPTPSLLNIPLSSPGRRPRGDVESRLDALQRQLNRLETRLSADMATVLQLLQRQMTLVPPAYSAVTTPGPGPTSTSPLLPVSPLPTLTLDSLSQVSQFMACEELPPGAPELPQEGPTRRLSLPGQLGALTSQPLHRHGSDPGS

[4] = Permeability across human Caco-2 cells assessed as permeability coefficient; assay type: ADME, cell-based; settings: read-out: permeability
[5] = AUC (0 to t) in Sprague-Dawley rat at 5 mg/kg, po; assay type: ADME, organism-based; design: dose 5 mg/kg, route oral; settings: plasma
[6] = Cmax in Sprague-Dawley rat at 5 mg/kg, po; assay type: ADME, organism-based; design: dose 5 mg/kg, route oral; settings: in vivo
[7] = Half life in Sprague-Dawley rat at 5 mg/kg, po; assay type: ADME, organism-based; design: dose 5 mg/kg, route oral; settings: in vivo
[8] = Oral bioavailability in Sprague-Dawley rat at 5 mg/kg, po; assay type: ADME, organism-based; settings: in vivo
in vitro = settings: rat, liver microsomes
Rattus norvegicus = experiment: Induction of 5HT4 receptor-mediated relaxation of esophagus in iv dosed anesthetized Sprague-Dawley rat by digital sonomicrometry; assay type: functional
[9] = Oral bioavailability in human; assay type: ADME, organism-based; settings: in vivo

T1 sequence (Q13639 whole entry): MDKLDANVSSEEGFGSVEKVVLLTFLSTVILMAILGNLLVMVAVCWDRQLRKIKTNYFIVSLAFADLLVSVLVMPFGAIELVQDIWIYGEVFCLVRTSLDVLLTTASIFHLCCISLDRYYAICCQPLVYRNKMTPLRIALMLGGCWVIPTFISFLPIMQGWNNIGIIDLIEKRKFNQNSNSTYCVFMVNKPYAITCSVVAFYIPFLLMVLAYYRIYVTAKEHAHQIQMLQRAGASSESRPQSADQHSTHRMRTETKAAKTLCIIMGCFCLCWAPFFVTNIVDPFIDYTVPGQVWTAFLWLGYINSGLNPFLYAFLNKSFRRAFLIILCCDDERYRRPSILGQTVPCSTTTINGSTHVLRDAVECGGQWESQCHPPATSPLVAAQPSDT

| Structure (SMILES) | Ki [1] [nM] | Ratio Ki (Homo sapiens) | EC50 [2] [nM] | Intrinsic activity [3] [%] | inhibition at 3 µM (hERG (KCNH2)) [%] | Papp [4] [nm/s] | AUC(0-t) [5] [µg·h/mL] | Cmax [6] [ng/mL] | half-life [7] [h] | bioavailability [8] [%] | half-life (in vitro) [h] | ED50 (Rattus norvegicus) [mg/kg] | bioavailability [9] [%] |
| --- | --- | --- | --- | --- | --- | --- | --- | --- | --- | --- | --- | --- | --- |
| CC(C)n1c(=O)c(C(=O)N[C@H]2C[C@H]3CC[C@@H](C2)N3CCCN2CCN(S(C)(=O)=O)CC2)cc2ccccc21 | 39.8 | 2300 | 1.58 | > 100 | 38 | 200 | 0.183 | 34 | 7.9 | 38 | 0.683 | – | – |
| COc1cc(N)c(Cl)cc1C(=O)NC1CCN(CCCOc2ccc(F)cc2)CC1OC (stereo not drawn) [CISAPRIDE] | – | – | – | – | – | – | – | – | – | – | – | 0.142 | – |
| CCCCCNC(=N)N/N=C/c1c[nH]c2ccc(OC)cc12 [TEGASEROD] | – | – | – | – | – | 110 | 0.021 | 6 | 1.8 | 5 | > 1.5 | 0.0106 | 10 |
| CC(C)n1c(=O)c(C(=O)N[C@H]2C[C@H]3CC[C@@H](C2)N3CC(O)CN2CCN(S(C)(=O)=O)CC2)cc2ccccc21 (mixture of isomers) | 20 | 2400 | 0.794 | > 100 | 10 | 190 | – | – | – | – | – | – | – |
| CC(C)n1c(=O)c(C(=O)N[C@H]2C[C@H]3CC[C@@H](C2)N3CCCCCCCN2CCCCC2)cc2ccccc21 | 2.51 | 10000 | 0.794 | 90 | 9 | 230 | – | – | – | – | – | – | – |
| CC(C)n1c(=O)c(C(=O)N[C@H]2C[C@H]3CC[C@@H](C2)N3CCCN2CCCCC2)cc2ccccc21 | 6.31 | 9200 | 2 | > 100 | 39 | 240 | – | – | – | – | – | – | – |
| CC(C)n1c(=O)c(C(=O)N[C@H]2C[C@H]3CC[C@@H](C2)N3CCCCCCCN2CCC[C@@H]2C(N)=O)cc2ccccc21 | 2 | 20000 | 0.398 | > 100 | 7 | 90 | – | – | – | – | – | – | – |
| CC(C)n1c(=O)c(C(=O)N[C@H]2C[C@H]3CC[C@@H](C2)N3CCCCCCCN2CCN(S(C)(=O)=O)CC2)cc2ccccc21 | 10 | 2600 | 2.51 | > 100 | 46 | 220 | 0.083 | 10 | 20.3 | 20 | > 1.5 | – | – |
| CCOC(=O)N1CCN(CCCN2[C@@H]3CC[C@H]2C[C@@H](NC(=O)c2cc4ccccc4n(C(C)C)c2=O)C3)CC1 | 39.8 | 1300 | 2.51 | > 100 | 75 | 310 | – | – | – | – | – | – | – |
| CC(C)n1c(=O)c(C(=O)N[C@H]2C[C@H]3CC[C@@H](C2)N3CCCCCCCN2CCOCC2)cc2ccccc21 | 2 | 1600 | 2.51 | > 100 | 34 | 280 | – | – | – | – | – | – | – |
| CC(C)n1c(=O)c(C(=O)N[C@H]2C[C@H]3CC[C@@H](C2)N3CCCCCCCN2CCN(c3ccccc3)CC2)cc2ccccc21 | 3.98 | 5300 | 7.94 | > 100 | 97 | 200 | – | – | – | – | – | – | – |
